According to ChEMBL document CHEMBL1201862, “PubChem BioAssay data set” (2004):
Calls of active or inactive are those of the source.

Key:
[1] = biological target: T1, Endoribonuclease toxin MazF (Escherichia coli K-12, UniProt P0AE70); assay: substrate-only fluorescence increase artefacts – biochemical, single-stranded RNase substrate, counter-screen for MazEF activator project, dose response (AID 588502); assay type: functional
T1 sequence (P0AE70 whole entry): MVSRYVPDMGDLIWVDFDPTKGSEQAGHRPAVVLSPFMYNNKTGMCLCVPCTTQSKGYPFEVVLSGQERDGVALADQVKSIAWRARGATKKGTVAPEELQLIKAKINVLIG

[2] = biological target: T2, Zinc finger protein mex-5 (Caenorhabditis elegans, UniProt Q9XUB2); assay: potency of MEX-5 RNA-binding blockers – biochemical, C. elegans, fluorescence polarization, dose response (AID 1960)
T2 sequence (Q9XUB2 whole entry): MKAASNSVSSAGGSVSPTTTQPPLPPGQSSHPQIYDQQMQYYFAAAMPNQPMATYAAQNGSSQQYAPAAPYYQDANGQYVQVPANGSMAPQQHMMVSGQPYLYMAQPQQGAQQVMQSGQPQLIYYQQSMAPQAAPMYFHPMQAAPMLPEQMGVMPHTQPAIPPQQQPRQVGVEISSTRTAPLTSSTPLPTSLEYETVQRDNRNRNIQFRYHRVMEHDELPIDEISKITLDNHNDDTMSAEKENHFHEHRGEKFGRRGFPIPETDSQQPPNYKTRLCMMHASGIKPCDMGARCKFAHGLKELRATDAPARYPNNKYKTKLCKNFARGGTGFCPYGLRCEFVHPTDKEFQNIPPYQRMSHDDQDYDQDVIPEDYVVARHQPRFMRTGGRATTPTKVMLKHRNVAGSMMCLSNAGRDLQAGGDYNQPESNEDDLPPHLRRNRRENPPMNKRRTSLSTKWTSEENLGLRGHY

[3] = biological target: T3, RNA-binding protein pos-1 (Caenorhabditis elegans, UniProt G5EF15); assay: disruptors of C. elegans POS-1 RNA interaction – biochemical, fluorescence polarization, dose response (AID 1964);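 note: purified POS-1 fused to maltose binding protein made in E. coli; potency of compounds blocking POS-1 binding to fluorescent RNA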
T3 sequence (G5EF15 whole entry): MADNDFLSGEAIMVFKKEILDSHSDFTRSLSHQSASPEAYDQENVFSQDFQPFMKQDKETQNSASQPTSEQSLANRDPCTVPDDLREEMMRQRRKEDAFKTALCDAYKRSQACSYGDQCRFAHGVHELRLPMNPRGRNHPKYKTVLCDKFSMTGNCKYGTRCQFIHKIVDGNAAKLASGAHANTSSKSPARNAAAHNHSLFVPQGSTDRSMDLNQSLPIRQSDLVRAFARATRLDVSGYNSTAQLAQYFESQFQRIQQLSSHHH

[4] = biological target: T1, Endoribonuclease toxin MazF; assay: activation of MazEF endoribonuclease cleavage – biochemical, fluorescence, single-stranded RNA substrate, uHTS hits, dose response (AID 588481); assay type: functional
[5] = biological target: T4, Replicative DNA helicase DnaB (Mycobacterium tuberculosis, UniProt P9WMR3); assay: DnaB intein splicing inhibitors, dose response, biochemical, cell-free fluorescence (AID 449749); assay type: functional
T4 sequence (P9WMR3 whole entry): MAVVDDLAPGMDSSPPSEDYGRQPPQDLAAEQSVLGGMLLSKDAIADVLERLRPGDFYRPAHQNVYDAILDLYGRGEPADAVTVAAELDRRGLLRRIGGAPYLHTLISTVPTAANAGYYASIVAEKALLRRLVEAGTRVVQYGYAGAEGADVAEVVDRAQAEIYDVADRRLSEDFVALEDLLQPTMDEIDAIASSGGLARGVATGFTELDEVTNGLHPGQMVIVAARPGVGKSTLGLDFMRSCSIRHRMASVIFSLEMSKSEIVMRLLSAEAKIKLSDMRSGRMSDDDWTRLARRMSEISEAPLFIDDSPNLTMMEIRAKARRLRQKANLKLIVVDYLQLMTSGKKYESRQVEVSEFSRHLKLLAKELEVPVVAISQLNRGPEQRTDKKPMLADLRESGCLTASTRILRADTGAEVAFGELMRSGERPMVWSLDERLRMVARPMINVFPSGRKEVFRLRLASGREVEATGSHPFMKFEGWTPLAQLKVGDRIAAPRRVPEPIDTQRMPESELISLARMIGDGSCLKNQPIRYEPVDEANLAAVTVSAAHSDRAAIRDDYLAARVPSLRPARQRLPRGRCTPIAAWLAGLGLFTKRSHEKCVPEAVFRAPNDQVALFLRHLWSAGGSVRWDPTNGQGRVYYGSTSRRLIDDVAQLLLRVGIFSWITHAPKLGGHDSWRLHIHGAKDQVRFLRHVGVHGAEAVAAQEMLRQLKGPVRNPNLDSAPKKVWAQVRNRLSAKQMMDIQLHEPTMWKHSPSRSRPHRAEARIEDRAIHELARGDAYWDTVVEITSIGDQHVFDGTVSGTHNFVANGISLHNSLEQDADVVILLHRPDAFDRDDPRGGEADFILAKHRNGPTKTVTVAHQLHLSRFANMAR

Protein RecA = biological target: T5, Protein RecA (Mycobacterium tuberculosis, UniProt P9WHJ3); assay: Fluorescence Cell-Free Homogeneous Dose Retest to Identify Inhibitors of RecA-Intein Splicing Activity. [Related pubchem assays (depositor defined):AID2097, AID2223, AID489010, AID492950]; assay type: functional
T5 sequence (P9WHJ3 whole entry): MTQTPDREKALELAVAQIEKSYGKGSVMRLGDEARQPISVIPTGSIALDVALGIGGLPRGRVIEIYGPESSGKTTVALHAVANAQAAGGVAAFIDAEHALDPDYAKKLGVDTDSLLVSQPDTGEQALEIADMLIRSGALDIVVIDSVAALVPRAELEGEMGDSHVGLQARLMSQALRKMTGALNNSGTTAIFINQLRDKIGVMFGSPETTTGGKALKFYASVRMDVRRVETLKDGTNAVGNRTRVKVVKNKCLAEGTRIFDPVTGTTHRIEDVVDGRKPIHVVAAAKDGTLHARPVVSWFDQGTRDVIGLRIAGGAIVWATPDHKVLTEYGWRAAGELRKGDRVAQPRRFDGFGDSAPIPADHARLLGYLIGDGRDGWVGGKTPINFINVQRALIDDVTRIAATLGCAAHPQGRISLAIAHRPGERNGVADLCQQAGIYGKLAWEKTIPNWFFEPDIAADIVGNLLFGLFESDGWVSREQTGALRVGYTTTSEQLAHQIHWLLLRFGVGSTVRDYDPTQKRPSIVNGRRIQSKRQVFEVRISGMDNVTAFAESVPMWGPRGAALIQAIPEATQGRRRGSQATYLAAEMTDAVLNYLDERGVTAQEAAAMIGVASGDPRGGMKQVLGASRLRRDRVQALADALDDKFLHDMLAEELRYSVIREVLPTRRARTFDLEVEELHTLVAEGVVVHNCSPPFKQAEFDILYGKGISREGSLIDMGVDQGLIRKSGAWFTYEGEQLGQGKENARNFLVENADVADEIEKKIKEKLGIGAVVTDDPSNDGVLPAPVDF

HEK293 = assay: EBV LMP1 TES2 canonical NF-kB signalling blockers – cell-based, HEK293, luciferase, cherry-pick, dose response (AID 588343); assay type: functional; settings: Homo sapiens
[6] = P. falciparum Dd2 growth inhibitors, dose response, SYBR Green, cherry-picked samples (AID 1159567); assay type: functional, cell-based
[7] = NIH-3T3 fibroblast cytotoxicity, dose response, cytotoxicity control, cell-based, fluorescence, Alamar Blue, secondary assay (AID 2327); assay type: functional;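 note: NIH-3T3 mouse fibroblasts cultured with fluconazole at 8 µg/mL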
Streptokinase A = biological target: T6, Streptokinase A (Streptococcus pyogenes serotype M1, UniProt P10520); assay: viability-normalized secreted streptokinase activity reduction – plasminogen activation absorbance, OD405, dose response (AID 1914); assay type: functional, Streptococcus pyogenes M1 GAS;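 note: secreted streptokinase activity via plasminogen activation per viability signal from cell pellet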
T6 sequence (P10520 whole entry): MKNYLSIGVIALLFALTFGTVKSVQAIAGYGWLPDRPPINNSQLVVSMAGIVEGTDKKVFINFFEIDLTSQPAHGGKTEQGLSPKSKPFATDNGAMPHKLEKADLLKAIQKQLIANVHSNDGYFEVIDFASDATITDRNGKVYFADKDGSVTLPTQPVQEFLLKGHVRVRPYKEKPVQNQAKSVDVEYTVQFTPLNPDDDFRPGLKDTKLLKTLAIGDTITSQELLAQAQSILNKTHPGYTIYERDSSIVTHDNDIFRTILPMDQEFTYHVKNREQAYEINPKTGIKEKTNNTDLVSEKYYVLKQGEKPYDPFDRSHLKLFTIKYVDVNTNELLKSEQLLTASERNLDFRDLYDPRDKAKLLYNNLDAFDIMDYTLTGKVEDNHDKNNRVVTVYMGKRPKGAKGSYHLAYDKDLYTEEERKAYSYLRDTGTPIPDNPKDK

[8] = tested on: Streptococcus sp. 'group A'; assay: Streptococcus pyogenes SK(-)GAS viability under kanamycin – luminescence, BacTiterGlo, confirmation, counter-screen for streptokinase expression inhibitor project, dose response (AID 1900); assay type: functional, organism-based
[9] = fluconazole-exposed Candida albicans growth modulators – fluorescence, retest, confirmation (AID 2467); assay type: functional, cell-based
Streptococcus = assay: GAS UMAA2166 growth inhibition – luminescence, BacTiterGlo, counter-screen for streptokinase expression inhibitor project, dose response (AID 1915); assay type: functional, organism-based;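 note: potency for reduction of bacterial viability or growth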
[10] = blockade of melanocortin 4 receptor signaling – cell-based, plate reader, cherry pick, counter-screen for LGR2 antagonist project, dose response (AID 743444); assay type: functional;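 note: transfected HEK 293 cells stimulated with alpha-MSH peptide; potency of inhibitors of the alpha-MSH evoked signal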
[11] = A549 cell cytotoxicity, dose response, cytotoxicity control, plate reader, cherry-pick, antagonist series (AID 743412); assay type: functional, cell-based
[12] = blockers of bursicon-stimulated LGR2 cAMP reporter – cell-based, HEK293, CRE-luciferase reporter, cherry pick, set 2, dose response (AID 743343); assay type: functional;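 note: transfected cells were stimulated with diluted bursicon conditioned medium after compound addition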
[13] = toxicity toward HepG2 liver cells – cell-based, plate reader, cherry-pick, antagonist series, cytotoxicity control, dose response (AID 743416); assay type: functional

## COc1ccc2c(c1)S/C(=C\C(=O)c1ccncc1)N2C
[1]
  EC50: > 99 µM (inactive)
[2]
  EC50: > 300 µM (not active)
[3]
  EC50: > 300 µM (not active)
[4]
  EC50: > 99 µM (inactive)

## CSc1nnc(N2C(=O)C(O)=C(C(=O)c3ccc(C)o3)C2c2ccc(C)cc2)s1 (stereo not drawn)
[1]
  EC50: > 99 µM (inactive)
[4]
  EC50: 9.87 µM (active)

## COc1cc(/C=C2/SC(=S)N(Cc3ccccc3)C2=O)ccc1OCC(=O)O
[5]
  AC50: 4.22 µM (active)
Protein RecA
  EC50: 6.85 µM (active)
HEK293
  AC50: 45.2 µM (active)

## Cc1ccc(-c2cc(-c3ccccc3)nc(N)c2C#N)o1
[1]
  EC50: 44.6 µM (inactive)
[4]
  EC50: > 99 µM (inactive)

## COc1cccc(-c2cn(CC[C@@H]3CC[C@@H](NS(=O)(=O)c4ccccc4Cl)[C@H](CO)O3)nn2)c1
[6]
  AC50: 5.86 µM (active)

## Cc1ccc(O)c(C2=NNC(c3ccc(Cl)cc3)C2)c1 (stereo not drawn)
[7]
  EC50: > 160 µM (inactive)
Streptokinase A
  EC50: > 150 µM (not active)
[8]
  EC50: 4.36 µM (active)
[9]
  EC50: 3.23 µM (active)
Streptococcus
  EC50: 9.12 µM (active)

## NNS(=O)(=O)c1ccc(Sc2ccccn2)c([N+](=O)[O-])c1
[1]
  EC50: > 99 µM (inactive)
[4]
  EC50: 52.6 µM (inactive)

## CCCNC(=O)Nc1ccc2c(c1)C(=O)N(C)C[C@H](OC)[C@H](C)CN(Cc1ccc(-c3ccccn3)cc1)[C@@H](C)CO2
[10]
  AC50: 55.8 µM (active)
[11]
  AC50: 26.4 µM (active)
[12]
  AC50: 50.8 µM (active)
[13]
  AC50: 44 µM (active)
